These are literature values, as cited in patent publication US20040157932A1, “Supplements and foods comprising oleylethanolamide” (Natural ASA,, priority 2002, published 2004).

The conditions of data set [1]: rats.
The test system of data set [2] is rat mammary tumorigenesis. Particulars: administration of CLA.
Data set [3] concerns human melanoma, colorectal and breast cancer cells. As to conditions: in vitro.
For data set [4], the system named is CD-4 and CD-8 lymphocyte subpopulations; white blood cells.
For data set [5] the following is noted: diet with 0.5 percent CLA.
The conditions of data set [6]: CLA in animal feed, birds and mammals.

For the molecule `CCCCCCC(C)OC(=O)CC(=O)CBr` (stereo not shown) [2-octyl y-gamma.-bromoacetoacetate], in the data set with FAAH, the FAAH inhibition entry is “potent”.
Take `CCCCCCCC/C=C\CCCCCCCC(=O)NCCO` [OEA, oleylethanolamide]: in the data set with cannabinoid receptors, the “activation of cannabinoid receptors” value is on record as “does not activate”. Also, in data set [1] (OEA in diet), the desire for food entry was “reduced desire for food” and the weight gain result is on record as “decreased weight gain”. Besides, the “effect on the nervous system” value in data set [1] (in contrast to currently available weight loss drugs) was “not effecting the nervous system”.
With conjugated linoleic acid [CLA], the rat mammary tumorigenesis entry in data set [2] was “inhibits”. Further, the “cytotoxicity against human melanoma, colorectal and breast cancer cells” value in data set [3] is recorded as “strong cytotoxic agent”. Moreover, in data set [4] (CLA in concentrations of about 0.1 to 1.0 percent), the “preserving white blood cells” value is given as “effective adjuvant”. The “CD-4 and CD-8 lymphocyte subpopulations” value in data set [4] (oral or parenteral administration, free acid or salt form) was “elevation”. Besides, in data set [5], the body weight entry is “no increase”. In data set [5] (pigs, mice, humans), the fat content result is recorded as “significant drop” and the protein mass result was “concomitant increase”. Also, the “efficiency of feed conversion” value in data set [6] is “increased the efficiency of feed conversion”.
